Test results taken from publication PMC11984924, “Dipeptidic Phosphonates: Potent Inhibitors of Pseudomonas aeruginosa Elastase B Showing Efficacy in a Murine Keratitis Model” (Advanced Science, 2025).

Legend:
LasB = target: T1, LasB (Pseudomonas aeruginosa, UniProt Q02RJ6); test: KC/LasB co-incubation study (ELISA); type: biochemical; details: 100 µM (R)-30, 100 nM LasB, 10 min
T1 construct: made in house
Method: Figure S15: MS-based quantification of (R)-30 levels in serum and eye homogenate. Concentrations were determined after single treatment ((R)-30 alone) or after combination with Meropenem.
To test whether KC might be a substrate for LasB, an ELISA was used to quantify KC levels after co-incubation with LasB. Briefly, 500 pg/ml of the recombinant murine KC standard (R&D part 840327) was incubated for 10 minutes in PBS supplemented with 1% BSA and 0.1% DMSO (vehicle control), LasB (100 nM), (R)-30 (100 µM), or a combination of both. Detection of KC and absorbance measurements were performed as described above (3.11).
(also on this page, place not known: Serum Eye homogenate 100 1000 concentrations Concentration [ng/mL] Meropenem + (R)-30 (R)-30 , 10 LasB (R)-30)
(1 picture or pasted object on this page, not shown here)

[1] = tested on: P. aeruginosa strain PA54 keratitis; test: Murine Pseudomonas keratitis model; type: in vivo, mouse
Method: Based on our previous findings on target engagement in a murine pneumonia model in combination with a standard‐of‐care antibiotic,^[ [30] ^] we applied the dipeptide (R)‐30 alone and in combination with the commonly used antibiotic meropenem.^[ [9] ^] The keratitis model was carried out using aged female C57BL/6 mice, as previously published.^[ [37] ^] For infection, 5*10^7 colony forming units (CFUs) of PA54 were topically administered on denuded, mechanically harmed corneas. Treatments with meropenem, (R)‐30, or meropenem in combination with (R)‐30 were performed every 8 h for 72 h (first treatment at 6 h post infection). Each of the in total nine 5 µL‐doses contained 1 mg/mL (R)‐30 and/or 0.5 mg mL^−1 meropenem. Sham‐treated mice received 5 µL‐doses of the vehicle (0.9% saline and 1% DMSO) at the time points indicated above, and uninfected eyes received no treatment. […]
Animals: The animal experiments were approved by Saarland University’s Animal Welfare Committee (Application number: 17/2021) and conducted in accordance with German and European recommendations and guidelines for the ethical use of animals. The laboratory animals were all C57BL/6N female eight to eleven months old mice. Keeping in specific pathogen-free conditions was provided. Unlimited access to water and show was secured.
Temperature was closely maintained around 22 °C and relative air humidity around 50%. Light and darkness alternated at twelve-hour intervals. All laboratory animals were purchased from Charles River GmbH, Sulzfeld, Germany.
P. aeruginosa: The P. aeruginosa strain PA54 was employed to induce an experimental bacterial keratitis in the aforementioned C57BL/6N mice. The strain PA54 was isolated from human infections and collected at Saarland University Medical Center’s Institute for Medical Microbiology and Hygienics (IMMH) in 2009. According to Magiorakos et al., PA54 can be classified as multidrug-resistant due to its lacking sensibility to the anti-pseudomonal cephalosporins ceftazidime and cefepime, the anti-pseudomonal fluoroquinolones ciprofloxacin and levofloxacin, the […] fosfomycin, and the aminoglycoside gentamicin.[18] The minimum inhibitory concentration (MIC) of the reserve antibiotic meropenem (meropenem trihydrate, Sigma) was 1 µg/mL (sensitivity limit = 2 µg/mL). The exoU- and exoT-positivity of the PA54 strain, foregrounds its keratitogenic potential.
Inoculum: The P. aeruginosa strain PA54 is routinely grown overnight on blood agar (TrypticaseTM Soy Agar, 5% sheep blood, BD, Heidelberg, Germany) at 37 °C. To obtain a stationary phase cell inoculum, a freshly grown colony was inoculated in tryptic soy broth (TSB; BD, Heidelberg, Germany) and cultured at 37 °C and 150 rounds per minute (rpm) for 16 h.
Then, 2 mL were centrifuged at 13,200 rpm at rt for 2 min, whereupon cells were resuspended in spent medium to an OD600 of 10 (∼1×1010 CFU/mL). Short storage on ice followed, before the infection procedure started.
Infection Procedure: Anesthesia and infection were performed as previously published. Briefly, fentanyl (Hameln Pharma Plus GmbH, Hameln, Germany), midazolam hydrochloride (Midazolam-Hameln, 5 mg/mL, Hameln pharma GmbH, Germany) and medetomidine hydrochloride (Domitor, Orion Corporation, Espoo, Finland) were dissolved in 0.9% NaCl (NaCl 0.9%, Ecotainer 500 mL, B. Braun, Melsungen, Germany), dosed at 0.05 mg/kg, 5 mg/kg and 0.5 mg/kg body weight, respectively, and applied by intraperitoneal injection. Analgesia (Carprofen, 5 mg/kg body weight, Zoetis Deutschland GmbH, Berlin, Germany) was ap plied subcutaneously. Lacrimation was stopped with 10 µL of a 0.6% acetylcysteine solution (Pharmacy of Saarland University Hospitals, Homburg, Germany). Local analgesia (0.5% proxymetacaine hydrochloride, Proparakain -POS Augentropfen, Ursapharm Arzneimitt el GmbH, Saarbrücken, Germany) was eye-dropped and removed after 60 seconds. The blunt […]

44 key molecular targets = test: SafetyScreen44 in vitro panel (whole panel); parameters: species or system human; details: 100 µM
Excerpt: (§1) Moreover, we explored the safety profile of frontrunner (R)‐30 in more detail in order to detect additional crucial off‐target interactions. For this purpose, we employed the SafetyScreen44 in vitro panel comprising selected binding, inhibition and uptake assays.^[ [35] ^] The panel is a specialized pharmacological profiling tool that tests compounds against 44 key molecular targets, aiming to identify potential safety risks early in drug discovery. […]
(§2) The off-target Safety Screen44TM was performed by the CRO Eurofins Cerep SA (Celle-
(§3) L'Evescault, France) according to their protocols.[13] […]
(§4) MMP-1 MMP-2 MMP-3 TACE (ADAM17)
(§5) Compound [% inhibition at [% inhibition at [% inhibition at [% inhibition at 100

cyclooxygenase 1 (COX1) = target: T2, cyclooxygenase 1 (COX1) (Homo sapiens, UniProt P23219); test: SafetyScreen44: COX1; type: biochemical
T2 construct: Eurofins Cerep SA (CRO)
Excerpt: as §1, §2, §3, §4, §5

[2] = Stability in minipig liver microsomes; type: in vitro ADME; details: Göttingen, read-out: Minipig Liver Microsomes t1/2
Method: (§6) Samples were stored on ice until the end of the incubation and precipitated protein was removed by centrifugation (15 min, 4 °C, 4,000 g). Concentration of the remaining test […]
(§7) compound at the different time points was analyzed by HPLC-MS/MS (TSQ Quantum Access […]
(§8) MAX, Thermo Fisher, Dreieich, Germany) and used to determine half -life (t1/2) and intrinsic […]
(§9) Species profiling was conducted as above using 0.5 mg/mL pooled mouse, rat or minipig liver microsomes (Xenotech, Kansas City, USA) with 2 mM NADPH and 10 mM MgCl2 and testosterone, verapamil and ketoconazole as reference compounds. […]
(§10) Thermo Fisher, Dreieich, Germany) and used to determine half-life (t1/2).
(§11) Table S2: Additional in vitro ADMET data for selected dipeptides. n.d.: not determined.
(§12) Kinetic Liver S9 Clint [µL/mg/min] Plasma t1/2 [min] LogD7.4 […]
(§13) pH 7.4 [µM] Mouse Human Mouse Human

[3] = Stability in rat liver microsomes; type: in vitro ADME; details: Wistar, read-out: Rat Liver Microsomes t1/2
Method: as §6, §7, §8, §9, §10, §11, §12, §13

T2 sequence (P23219 24-599): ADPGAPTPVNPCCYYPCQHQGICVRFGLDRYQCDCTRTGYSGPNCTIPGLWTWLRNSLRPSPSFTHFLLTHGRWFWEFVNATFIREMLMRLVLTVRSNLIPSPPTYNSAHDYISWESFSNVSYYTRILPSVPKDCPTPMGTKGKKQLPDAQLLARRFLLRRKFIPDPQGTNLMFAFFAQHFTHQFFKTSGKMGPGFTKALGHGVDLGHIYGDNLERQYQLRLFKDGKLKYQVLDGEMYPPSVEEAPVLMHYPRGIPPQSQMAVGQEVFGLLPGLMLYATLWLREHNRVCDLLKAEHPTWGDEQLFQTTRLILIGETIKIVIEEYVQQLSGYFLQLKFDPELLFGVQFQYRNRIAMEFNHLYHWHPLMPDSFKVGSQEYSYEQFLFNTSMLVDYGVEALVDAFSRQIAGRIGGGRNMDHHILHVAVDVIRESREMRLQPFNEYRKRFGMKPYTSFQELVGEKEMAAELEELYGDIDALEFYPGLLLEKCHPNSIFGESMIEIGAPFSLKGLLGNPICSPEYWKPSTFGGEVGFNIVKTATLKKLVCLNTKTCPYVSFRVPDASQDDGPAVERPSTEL
T1 sequence (Q02RJ6 198-498): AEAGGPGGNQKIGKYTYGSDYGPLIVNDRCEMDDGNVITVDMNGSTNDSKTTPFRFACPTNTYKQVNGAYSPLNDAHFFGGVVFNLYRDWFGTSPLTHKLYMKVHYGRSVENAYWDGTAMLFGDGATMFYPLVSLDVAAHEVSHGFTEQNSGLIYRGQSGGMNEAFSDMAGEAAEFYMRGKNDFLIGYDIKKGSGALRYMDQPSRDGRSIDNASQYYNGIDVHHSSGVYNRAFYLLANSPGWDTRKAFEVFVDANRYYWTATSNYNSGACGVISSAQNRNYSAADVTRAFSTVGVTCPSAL

For `CC(=O)c1ccc(NC(=O)[C@@H](NC(=O)[C@@H](CC(C)C)P(=O)(O)O)C(C)C)cc1` [(R)‐30], the “proteolytic activity of LasB on KC” value (LasB) was “effectively blocked”, the “effect on bacterial loads in the eye” value ([1]; day 3 post infection) was “no clear effect on the bacterial loads” and the “IL‐1β levels in eye homogenate” value ([1]; day 3 post infection, compared to sham treatment / uninfected eyes) was “significant reduction”. The “KC levels in eye homogenate” value ([1]; day 3 post infection, compared to uninfected eyes) was “significantly higher amounts of this chemokine”, the “median clinical keratitis score” value ([1]; day three post infection, topical every 8 h for 72 h, 1 mg/mL (R)-30 and/or 0.5 mg/mL meropenem) was 4 and the “SafetyScreen44: number of targets inhibited” value (44 key molecular targets) was “ten targets by >50%”. For the same compound, the inhibition at 100 µM (cyclooxygenase 1 (COX1)) was 81.5%.

For `CC(=O)c1ccc(NC(=O)[C@@H](NC(=O)C(CC(C)C)P(=O)(O)O)C(C)C)cc1` (stereo partly drawn) [compound 30], the half-life at 1 µM [2] was greater than 2 h and the half-life at 1 µM [3] was greater than 2 h.
